Experimental data from US10774084B2, “Adenine derivatives and their use as UV-photoprotective agents” (UNIVERZITA PALACKEHO V OLOMOUCI, priority 2015, dated 2020).

Columns and labels:
[1] = system: Normal human dermal fibroblasts (NHDF); experiment: In vitro phototoxicity test (neutral red) on NHDF; format: cell-based
Description: Phototoxic potential of test compound was determined by modified in vitro test validated phototoxicity evaluation (Spielmann H, Balls M, Dupuis J, Pape W J, Pechovitch G, de Silva O, Holzhiitter H G, Clothier R, Desolle P, Gerberick F, Liebsch M, Lovell W W, Maurer T, Pfannenbecker U, Potthast J M, Csato M, Sladowski D, Steiling W, Brantom P. The International EU/COLIPA In Vitro Phototoxicity Validation Study: Results of Phase II (Blind Trial). Part 1: The 3T3 NRU Phototoxicity Test. Toxicol In Vitro. 1998; 12:305-27). Normal human dermal fibroblasts (NHDF) were used as an in vitro model. Cells were isolated from tissue specimens obtained from healthy patients undergoing plastic surgery at the Department of Plastic and Aesthetic Surgery (University Hospital Olomouc). The use of skin tissue was in accordance with the Ethics Committee of the University Hospital and Faculty of Medicine and Dentistry, Palacky University, Olomouc and all patients signed written informed consent. Fibroblasts were used between the 2nd and 4th passage. For all experiments the fibroblasts were seeded onto 96-well plates at a density of 0.8×10^5 cells/ml (0.2 ml per well) of cultivation medium (DMEM supplemented with fetal calf serum (10%, v/v), penicillin ([…]) and streptomycin (100 U/ml)). Test substances included compounds number 1, 3, 9, 15 and 20. Compounds were dissolved in DMSO and then diluted in serum free medium (DMEM supplemented with penicillin ([…]) and streptomycin (100 U/ml)). After 24 h incubation was cultivation medium changed to serum free medium containing test compound or DMSO (negative control). The final applied concentrations range 3.9-125 μmol/l. As a control, serum free medium supplemented with appropriate concentration of DMSO (0.5%, v/v) was used. In parallel with test compound, chlorpromazine (CPZ; 0.8-50 μmol/l) was used as a known phototoxic compound. The test compound was in parallel applied on two 96-well plates with NHDF. After 60 minutes incubation with test compound medium was discarded, cells were washed two-times with PBS and PBS supplemented with glucose (1 mg/ml) was applied. A plate was then exposed to a non-cytotoxic dose of UVA radiation (5.0 J/cm^2) using a solar simulator SOL 500 (Dr. Hoenle Technology, Germany) equipped with a H1 filter transmitting wavelengths of 320-400 nm. Intensity of UVA radiation was evaluated before each irradiation by UVA-meter. A control (non-irradiated) plate was for the period of irradiation incubated in dark. After UVA exposure PBS with glucose was discarded and serum free medium was applied. After 24 hours (37° C., 5% CO2) cell damage was evaluated by neutral red (NR) incorporation into viable cells. Medium was discarded and NR solution (0.03% w/v, PBS) was applied. After 60 minutes NR solution was discarded, cells were fixed with a mixture of formaldehyde (0.5%, v/v) and CaCl2 (1%, m/v) in ratio 1:1 and then NR was dissolved in methanol (50%, v/v) with acetic acid (1%, v/v). After 5 minutes of intensive shaking absorbance was measured at 540 nm. Experiments were performed in four independent repetitions with use of cells from four donors to minimize individual sensitivity of donor cells. Phototoxic effect was evaluated as % of viability of control cells that was calculated from experimental data (absorbance) according to the following equation:
[formula] • AS . . . absorbance of sample (cells pre-incubated with test compound in serum free medium and irradiated) • AC . . . absorbance of control (cells pre-incubated with DMSO in serum free medium and irradiated) • AB . . . absorbance of background (extraction solution)

[2] = system: Caenorhabditis elegans strain fem-1/HT17; experiment: Lifespan of Caenorhabditis elegans; format: in vivo; conditions: for average lifespan / median lifespan: 25° C.; for effect on lifespan of worms (in words): Log-Rank test, Bonferroni correction
Description: Caenorhabditis elegans is a model organism used for identification of compounds with possible beneficial effect on human aging and age-related diseases. The list of compounds that prolong the lifespan of C. elegans and are known to have beneficial effect on human health includes resveratrol, curcumin and many others. Some substances that prolong the lifespan of worms are also used in skin rejuvenating and anti-aging cosmetics, for example vitamin E, coenzyme Q10, green tea or pomegranade extracts and cytokinin kinetin. The Caenorhabditis elegans strain used in this experiment was fem-1/HT17. This strain has a heat-inducible mutation which causes all worms to develop into females when cultivated in 25° C. (13). That prevents further reproduction and contamination of the experiment with progeny. Compounds dissolved in DMSO (100 mM stock solutions) were added into fresh NGM (nematode growth medium) to the final concentration of 10 and 50 or 100 μM and pipetted onto a Petri dish. Medium with DMSO vehiculum alone and non-treated medium were used as negative control. After solidification of NGM, the plates were seeded with 100 μl of 20× concentrated overnight suspension of Escherichia coli strain OP50 in LB medium. Bacteria on plates were allowed to grow overnight in 37° C. Age synchronized young adults (obtained by hypochlorite treatment) were then pipetted onto plates. Plates were kept in 25° C. In regular time intervals (1-3 days), the plates were scanned on an Epson perfection V700 photo flatbed scanner. The number of surviving worms was established by image analysis based on comparison of several subsequent photographs and identification of moving objects. Pictures were analyzed in Fiji similarly as described here. Scripts from the original publication were slightly modified and the parameters adjusted to better suit our photo resolution and lighting. Three subsequent pictures of a plate were compared with each other. The average of the 3 resulting numbers was used to reduce the possibility of error. The overall results were then analyzed in programs OASIS and ED50v10. The statistical significance was evaluated by Log-Rank test and P-values were corrected by Bonferroni correction.

SMILES	NHDF viability ([1]; +UVA 5.0 J/cm^2, 3.9 μmol/l) [% control]	NHDF viability ([1]; +UVA 5.0 J/cm^2, 7.8 μmol/l) [% control]	NHDF viability ([1]; +UVA 5.0 J/cm^2, 15.6 μmol/l) [% control]	NHDF viability ([1]; +UVA 5.0 J/cm^2, 31.3 μmol/l) [% control]	NHDF viability ([1]; +UVA 5.0 J/cm^2, 62.5 μmol/l) [% control]	NHDF viability ([1]; +UVA 5.0 J/cm^2, 125 μmol/l) [% control]	NHDF viability ([1]; −UVA, 3.9 μmol/l) [% control]	NHDF viability ([1]; −UVA, 7.8 μmol/l) [% control]	NHDF viability ([1]; −UVA, 15.6 μmol/l) [% control]	NHDF viability ([1]; −UVA, 31.3 μmol/l) [% control]	NHDF viability ([1]; −UVA, 62.5 μmol/l) [% control]	NHDF viability ([1]; −UVA, 125 μmol/l) [% control]	average lifespan ([2]; 10 μM in NGM) [days]	median lifespan ([2]; 10 μM in NGM) [days]	average lifespan ([2]; 100 μM in NGM) [days]	median lifespan ([2]; 100 μM in NGM) [days]	effect on lifespan of worms (in words) [2]	viability of NHDF cells ([1]; UVA+, 6.3 μmol/l)	viability of NHDF cells ([1]; UVA−, 25 μmol/l)
c1nc(NCC2CCCO2)c2ncn(C3CCCO3)c2n1 (stereo not shown) [Compound 1, 6-(tetrahydrofuran-2-ylmethylamino)-9-(tetrahydrofuran-2-yl)purine]	105.1	110.6	106.8	109.5	103.3	107.5	96.6	106.5	99.6	102.4	102.3	109.7	11.9	10.3	12.6	10.2	significantly prolonged		
OCc1ccc(CNc2ncnc3c2ncn3C2CCCO2)o1 (stereo not shown) [Compound 3, 6-(5-hydroxymethylfuran-2-ylmethylamino)-9-(tetrahydrofuran-2-yl)purine]	101.04	106.46	102.28	107.4	110.49	111.8	103	104.9	104.2	107.7	106.6	110.4							
c1csc(CNc2ncnc3c2ncn3C2CCCO2)c1 (stereo not shown) [Compound 9, 6-(thiophen-2-ylmethylamino)-9-(tetrahydrofuran-2-yl)purine]	97.8	102.3	100.8	105.9	102.8	106.3	100	103	100.5	106.7	107.9	108.4							
Clc1nc(NCc2ccco2)c2ncn(C3CCCO3)c2n1 (stereo not shown) [Compound 15, 2-chloro-6-furfurylamino-9-(tetrahydrofuran-2-yl)purine]	100.1	101.5	102.6	102.9	103.3	97.3	100.3	103.5	104.3	105.4	106.3	101.2	11.3	9.4	13.8	10.3			
Clc1nc(NCC2CCCO2)c2ncn(C3CCCO3)c2n1 (stereo not shown) [Compound 20, 2-chloro-6-(tetrahydrofuran-2-ylmethylamino)-9-(tetrahydrofuran-2-yl)purine]	100.1	102.9	100.4	102.7	105.1	104.8	103.1	102.9	100.6	105.6	102	104	12.4	11.2	11.2	10.2	significantly prolonged		
CN(C)CCCN1c2ccccc2Sc2ccc(Cl)cc21 [chlorpromazine, reference compound]																		below 80 % of control	below 80%
